{
  "source": "patent US20110152379A1",
  "about": "“COMPOSITION FOR CONTROL OF AGING AND/OR EXTENSION OF LIFE, CONTAINING DAPSONE AS ACTIVE INGREDIENT” (priority 2008, published 2011)",
  "key": {"[1]": {"system": "cytosolic superoxide anion", "assay": "Superoxide anion in cell (cytoplasm), DHE", "format": "cell-based", "conditions": "human diploid fibroblast; 1 mM PQ 30 minutes; FIG. 24A", "procedure": "(§1) The cell was treated with 1 mM of PQ for 30 minutes, and then was cultured at 37° C. for 15 minutes after adding oxidant-sensitive fluorescent dyes (A) DHE (5 uM, cytosol specific) and (B) MitoSOX (5 uM, mitochondria specific), respectively. For identifying the change of fluorescence, the excitation and emission wavelength of DHE were measured at 515 and 590 nm and MitoSOX was measured at 520 and 580 nm by using a multiwell plate reader. The results were indicated by calculating the results of three experiments as a control rate (%). The statistical significant was expressed as *, # p<0.005; ** p<0.05.\nThe cell was twice washed with DPBS and Ethidium-DNA that fluoresces was immediately measured at excitation wavelength 515 nm and emission wavelength 590 nm by using Cary Eclipse fluorescence spectrophotometer (Varian, Calif., USA) machine."}, "[2]": {"system": "mitochondria superoxide anion", "assay": "Superoxide anion in mitochondria, MitoSOX Red", "format": "cell-based", "conditions": "human diploid fibroblast; 1 mM PQ 30 minutes; FIG. 24B", "procedure": "as §1\nMitochondria superoxide anion was measured by using the fluorescence material, i.e., MitoSOX Red. […] The cell was twice washed with DPBS and the fluorescence was immediately measured at excitation wavelength 515 nm and emission wavelength 590 nm by using CEFS [Cary Eclipse fluorescence spectrophotometer (Varian, Calif., USA)] machine."}, "[3]": {"system": "membrane potential of mitochondria", "assay": "Membrane potential of mitochondria, DiOC6 assay", "format": "cell-based, human", "procedure": "The protein amount of mitochondria constituent complex was measured by using Western Blot using Complex I (20 kDa ND6 subunit), Complex II (30 kDa FeS, non-heme iron protein, SDHB), Complex III (47 kDa core protein 2), Complex IV (18 kDa subunit IV), Complex V (55 kDa subunit a ATP synthase), and the like. […] The membrane potential (Δψm) of mitochondria used DiOC6. […] Since then, the above fibroblast was treated with 40 nM of DiOC6 for 15 minutes. The results were measured by using Cary Eclipse Fluorescence Spectrophotometer (Varian, Calif., USA) and the excitation wavelength and emission wavelength were measured at 480 nm and 520 nm, respectively.\nThe change of membrane potential (Δψm) of mitochondria was measured by using a cationic dye, DiOC6 that is a specific fluorescent material for mitochondria. An aspect of the change was measured by using Fluorescence Spectrophotometer. The cell was cultured in 40 nM DiQC6 for 15 minutes and then the fluorescent material that was left was removed by using PBS. The analysis was performed by using Cary Eclipse fluorescence spectrophotometer (Varian, Calif., USA), and then the excitation wavelength was measured at 480 nm, and the emission wavelength was measured at 520 nm."}, "mitochondria": {"system": "mitochondria", "assay": "Mitochondria structure staining with MitoTracker Red", "format": "cell-based, human", "conditions": "pretreated with DDS or DPI, then 1 mM PQ 24 hours; FIG. 30", "procedure": "The first photograph indicates the stained mitochondria of the non-treated human diploid fibroblast as a control, the second photograph indicates the stained mitochondria of the PQ-treated human diploid fibroblast, the third photograph indicates the stained mitochondria of the human diploid fibroblast that was pretreated with DDS and then was treated with PQ, and the final photograph indicates the stained mitochondria of the human diploid fibroblast that was treated with DPI and PQ together (by using Confocal process). The values of (A, B, C and D: ×4000) is means±SEM (n=3), # is p<0.005 relative CC; and * is p<0.005 relative C.\nThe human diploid fibroblasts were cultured at 24-well plate. After the above experiment materials, i.e., the human diploid fibroblasts, were pretreated and then were treated with PQ for 24 hours, the above cells were treated with MitoTracker Red CMXRos (50 nM), which is a staining material for mitochondria, at 37° C. for 30 minutes. The dye is a marker of function for marking mitochondria through marking a transmembrane potential of mitochondria in a cell. After culturing, the cells were washed with PBS and then fixed with 4% of paraformaldehyde at 4° C. for overnight. […] After washing, the cells were covered with a cover glass and visualized through a fluorescence microscope."}, "Escherichia coli OP50": {"system": "Escherichia coli OP50", "assay": "Growth of OP50 bacteria with PABA and DDS", "format": "cell-based", "conditions": "PABA 10 uM added with DDS; FIG. 1", "procedure": "FIG. 1 is a graph showing the growth degree of bacteria by treating with PABA. […] In order to identify the effect of dapsone on the extending of lifespan, the experiment was performed in the following order. At this time, since dapsone is not a water-soluble material, E. coli was cultured in the medium including dapsone and then was used as a feed for C. elegans. […] The administration of dapsone was started after L4 stage that almost finishes the generation, and the experiment was performed as follows under the condition of 20° C. in order to provide the optimal growth environment: […]"}, "human diploid fibroblast": {"system": "human diploid fibroblast", "assay": "Survival rate of human diploid fibroblast treated with PQ (CCK-8)", "conditions": "1 mM PQ for 48 hours without any pretreatments", "procedure": "The above cell was cultured by adding Cell Counting Kit-8 for 48 hours and then the survival ability of cell was measured. In addition, DPI (5 uM) was pretreated for 30 minutes and NAC (2 mM) was pretreated for 3 hours, and then 1 mM of PQ was treated as a positive control.\nThe evaluation of survival rate of cell was performed by using Counting Kit (CCK-8) from Dojindo Laboratory Company (Japan). The human diploid fibroblast was cultured at 96-well plate for 24 hours before treating. […] The absorbance was measured at 450 nm."}, "[4]": {"assay": "DPPH radical scavenging activity in cell-free system", "format": "biochemical", "conditions": "0.1-100 uM; 200 uM DPPH; FIG. 25A", "procedure": "The radical scavenging activity was measured as the reducing power of\nDPPH included in methanol. […] DPPH is a stable free radical, has a thick purple color, and its absorbance is at 517 nm. However, if it reacts with an antioxidant, it has a pale yellow color. The reaction mixture was maintained for 30 minutes at a room temperature without light and then the absorbance was measured at 517 nm. The free radical scavenging activity was calculated as the suppression rate by using the following equation:\n% suppression=[(Absorbance of Control−Absorbance of Sample)/Control Absorbance]×100."}},
  "data": [
    {"smiles": "c1ccc2c(c1)[I+]c1ccccc1-2", "note": "[DPI]", "values": [
      {"measurement": "superoxide anion of cytoplasm produced by PQ (DHE assay)", "setting": "[1]", "result": "suppressed"},
      {"measurement": "production of superoxide anion in the mitochondria", "setting": "[2]", "result": "suppress"},
      {"measurement": "decrease of membrane potential induced by PQ", "setting": "[3]; pretreated with DDS (3 hours) or DPI (30 minutes), then 1 mM PQ 24 hours, FIG. 29B", "result": "meaningfully maintained"},
      {"measurement": "shape of mitochondria after PQ (MitoTracker)", "setting": "mitochondria", "result": "recovered, partially"}
    ]},
    {"smiles": "CC(=O)N[C@@H](CS)C(=O)O", "note": "[NAC, N-acetyl-L-cystein]", "values": [
      {"measurement": "superoxide anion of cytoplasm produced by PQ (DHE assay)", "setting": "[1]", "result": "suppressed"},
      {"measurement": "production of superoxide anion in the mitochondria", "setting": "[2]", "result": "suppress"}
    ]},
    {"smiles": "Nc1ccc(C(=O)O)cc1", "note": "[PABA, para-aminobenzoic acid]", "values": [
      {"measurement": "growth rate of bacteria relative to control", "setting": "Escherichia coli OP50", "result": 80, "unit": "%"}
    ]},
    {"smiles": "C[n+]1ccc(-c2cc[n+](C)cc2)cc1", "note": "[PQ, paraquat]", "values": [
      {"measurement": "viability of human diploid fibroblast compared with the non-treated control", "setting": "human diploid fibroblast", "result": "about 58.8%"},
      {"measurement": "membrane potential of mitochondria compared with the control", "setting": "[3]; human diploid fibroblast, 1 mM PQ for 24 hours", "result": 76.8, "unit": "%"}
    ]},
    {"smiles": "Cc1c(C)c2c(c(C)c1O)CCC(C)(C(=O)O)O2", "note": "(stereo not shown) [Trolox]", "values": [
      {"measurement": "activity of removing ROS on DPPH in the test tube", "setting": "[4]", "result": "strong activity of removing ROS"}
    ]}
  ]
}
